This note sets out measurements from PubChem BioAssay AID330 (DTP/NCI, 2004).

For the experiment, the system named is P388 leukemia ip, CD2F1 mice, survival T/C. Kind of experiment: NCI In Vivo Anticancer Drug Screen. Data for tumor model P388 Leukemia (intraperitoneal) in CD2F1 (CDF1) mice. The conditions noted are these: endpoint: median survival time, higher = longer survival. Summed up:
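Mice carrying the transplanted tumor received test compound or vehicle. Survival was recorded in each group, and the value is the treated-group measurement divided by that of the vehicle-treated control group.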

[1] abbreviates: dose: 60.0 mg/kg/injection, schedule: Q01DX005 (ip), vehicle: Klucel (hydroxypropylcellulose) (HPC).
[2] abbreviates: dose: 120.0 mg/kg/injection, schedule: Q01DX005 (ip), vehicle: Klucel (hydroxypropylcellulose) (HPC).
[3] abbreviates: dose: 240.0 mg/kg/injection, schedule: Q01DX005 (ip), vehicle: Klucel (hydroxypropylcellulose) (HPC).
[4] abbreviates: dose: 50.0 mg/kg/injection, schedule: Q01DX009 (ip), vehicle: Klucel (hydroxypropylcellulose) (HPC).
Setting [5] is: dose: 100.0 mg/kg/injection, schedule: Q01DX009 (ip), vehicle: Klucel (hydroxypropylcellulose) (HPC).
[6] abbreviates: dose: 200.0 mg/kg/injection, schedule: Q01DX009 (ip), vehicle: Klucel (hydroxypropylcellulose) (HPC).
The mark [7] stands for this setting: dose: 400.0 mg/kg/injection, schedule: Q04DX003 (ip), vehicle: saline with Tween-80.
The mark [8] stands for this setting: dose: 50.0 mg/kg/injection, schedule: Q01DX009 (ip), vehicle: saline.
The mark [9] stands for this setting: dose: 100.0 mg/kg/injection, schedule: Q01DX009 (ip), vehicle: saline.
The mark [10] stands for this setting: dose: 200.0 mg/kg/injection, schedule: Q01DX009 (ip), vehicle: saline with Tween-80.
Setting [11] is: dose: 200.0 mg/kg/injection, schedule: Q04DX003 (ip), vehicle: saline with Tween-80.
Setting [12] is: dose: 6.25 mg/kg/injection, schedule: Q01DX009 (ip), vehicle: Klucel (hydroxypropylcellulose) (HPC).
[13] abbreviates: dose: 12.5 mg/kg/injection, schedule: Q01DX009 (ip), vehicle: Klucel (hydroxypropylcellulose) (HPC).
The mark [14] stands for this setting: dose: 25.0 mg/kg/injection, schedule: Q01DX009 (ip), vehicle: Klucel (hydroxypropylcellulose) (HPC).
Where [15] appears, read: dose: 100.0 mg/kg/injection, schedule: Q04DX002 (ip), vehicle: saline.
[16] abbreviates: dose: 200.0 mg/kg/injection, schedule: Q04DX002 (ip), vehicle: saline.
Where [17] appears, read: dose: 400.0 mg/kg/injection, schedule: Q04DX002 (ip), vehicle: saline.
Setting [18] is: dose: 50.0 mg/kg/injection, schedule: Q01DX005 (ip), vehicle: saline with Tween-80.

Values joined by “and” are separate entries in the source; they are usually repeats but may differ in a detail not shown here. Equal values may be shown once. Toxic doses and inconclusive results are not listed.

`COC(=O)C12CN3CC(C)(C1)C(=O)C(C)(C3)C2=O` (stereo not drawn): the T/C (dose: 30.0 mg/kg/injection, schedule: Q01DX005 (ip), vehicle: Klucel (hydroxypropylcellulose) (HPC)) was 100 % of control; the T/C under setting [1] was 103 % of control and 107 % of control; the T/C under setting [2] was 107 % of control; the T/C under setting [3] was 89 % of control.

`O=C1CCC(N(CC#CCN(C2=NC(=O)CC2)c2ccccc2)c2ccccc2)=N1`: the T/C is 103 % of control under setting [1], 100 % of control under setting [2] and 97 % of control under setting [3].

Regarding `Cc1ccc(S(=O)(=O)/N=C\[N-][n+]2ccccc2C)cc1`, the T/C under setting [4] was 101 % of control, the T/C under setting [5] was 93 % of control and the T/C under setting [6] is 92 % of control.

For `S=c1cc(-c2ccccc2)ss1`, the T/C is, setting by setting: (dose: 178.0 mg/kg/injection, schedule: Q04DX003 (ip), vehicle: saline with Tween-80) 102 % of control; (dose: 266.0 mg/kg/injection, schedule: Q04DX003 (ip), vehicle: saline with Tween-80) 102 % of control; under setting [7], 101 % of control; (dose: 600.0 mg/kg/injection, schedule: Q04DX003 (ip), vehicle: saline with Tween-80) 102 % of control.

Turning to `O=C1c2ccccc2C(=O)N1O`, the T/C was 93 % of control under setting [8] and 100 % of control under setting [9].

On to `CS(=O)(=O)OCC(=O)NCC(O)CNC(=O)COS(C)(=O)=O`, for which the T/C under setting [10] is 175 % of control; the T/C under setting [11] is 181 % of control; the T/C under setting [7] is 162 % of control and 181 % of control.

Take `CN(C)CCCn1c(=O)nc2n(-c3ccccc3)c3ccccc3nc-2c1=O`: the T/C is 100 % of control and 106 % of control under setting [12]; 105 % of control under setting [13]; 109 % of control under setting [14]; 122 % of control under setting [4].

As for `CC(=O)Nc1cc2nc3ccc(C)cc3oc-2c(C)c1=O`, the T/C is, setting by setting: (dose: 0.78 mg/kg/injection, schedule: Q01DX009 (ip), vehicle: other) 113 % of control; (dose: 1.56 mg/kg/injection, schedule: Q01DX009 (ip), vehicle: other) 98 % of control; (dose: 3.13 mg/kg/injection, schedule: Q01DX009 (ip), vehicle: other) 98 % of control; (dose: 6.25 mg/kg/injection, schedule: Q01DX009 (ip), vehicle: other) 103 % of control.

In the case of `O=C1CCC2C(=O)OCC12` (stereo not drawn), the T/C is, setting by setting: (dose: 50.0 mg/kg/injection, schedule: Q04DX002 (ip), vehicle: saline) 99 % of control; under setting [15], 101 % of control; under setting [16], 94 % of control; under setting [17], 100 % of control.

On to `O=c1cc2cccccc-2o1`, for which the T/C reads like this: (dose: 100.0 mg/kg/injection, schedule: Q01DX001 (ip), vehicle: Klucel (hydroxypropylcellulose) (HPC)) 101 % of control; (dose: 200.0 mg/kg/injection, schedule: Q01DX001 (ip), vehicle: Klucel (hydroxypropylcellulose) (HPC)) 103 % of control.

On to `COC1OC(CO)C(O)C(O)C1O` (stereo not drawn), for which the T/C reads like this: under setting [8], 100 % of control; under setting [9], 94 % of control and 104 % of control; (dose: 100.0 mg/kg/injection, schedule: Q04DX003 (ip), vehicle: saline) 109 % of control; (dose: 200.0 mg/kg/injection, schedule: Q01DX009 (ip), vehicle: saline) 101 % of control and 100 % of control; (dose: 200.0 mg/kg/injection, schedule: Q04DX003 (ip), vehicle: saline) 95 % of control; (dose: 400.0 mg/kg/injection, schedule: Q01DX009 (ip), vehicle: saline) 106 % of control and 101 % of control. Besides, the T/C (dose: 400.0 mg/kg/injection, schedule: Q04DX003 (ip), vehicle: saline) is 95 % of control.

For the compound `CNC(=O)OCc1c(COC(=O)NC)c(-c2cccs2)n2c1CCC2`, the T/C is 122 % of control (dose: 12.5 mg/kg/injection, schedule: Q01DX005 (ip), vehicle: saline with Tween-80) and 104 % of control under setting [18].

For the compound `COc1nc2[nH]ccc2c(=O)[nH]1`, the T/C (dose: 60.0 mg/kg/injection, schedule: Q01DX005 (ip), vehicle: saline with Tween-80) was 94 % of control; the T/C (dose: 120.0 mg/kg/injection, schedule: Q01DX005 (ip), vehicle: saline with Tween-80) was 86 % of control; the T/C (dose: 240.0 mg/kg/injection, schedule: Q01DX005 (ip), vehicle: saline with Tween-80) was 96 % of control.

Turning to `C=C1C(=O)OC2CC(C)C3OC3C(=O)C(C)(O)C(O)C(O)C12` (stereo not drawn) (tested in a mixture with another compound), the T/C was 104 % of control under setting [12]; 101 % of control and 117 % of control under setting [13]; 110 % of control and 123 % of control under setting [14]; 123 % of control under setting [4]; 119 % of control under setting [6].

For `C[n+]1ccccc1-c1ccc[n+](CCC[n+]2cccc(-c3cccc[n+]3C)c2)c1`, the T/C reads like this: under setting [15], 105 % of control; under setting [16], 102 % of control; under setting [17], 108 % of control.

In the case of `O=C(O)C(=O)O.O=C(O)C(=O)O.O=C(O)C(=O)O.[Co]`, the T/C reads like this: (dose: 6.25 mg/kg/injection, schedule: Q04DX002 (ip), vehicle: saline) 91 % of control; (dose: 12.5 mg/kg/injection, schedule: Q04DX002 (ip), vehicle: saline) 100 % of control; (dose: 25.0 mg/kg/injection, schedule: Q04DX002 (ip), vehicle: saline) 91 % of control.

`CCOC(=O)c1ccc(NC(=S)Nc2ccccc2C(F)(F)F)cc1`: the T/C reads like this: under setting [4], 100 % of control; under setting [5], 100 % of control; under setting [6], 92 % of control.

In the case of `CC[N+]1(C)CCCCC1`, the T/C reads like this: (dose: 6.25 mg/kg/injection, schedule: Q01DX009 (ip), vehicle: saline) 107 % of control; (dose: 12.5 mg/kg/injection, schedule: Q01DX009 (ip), vehicle: saline) 103 % of control; (dose: 25.0 mg/kg/injection, schedule: Q01DX009 (ip), vehicle: saline) 97 % of control; under setting [8], 97 % of control.

As for `O=C(Nc1ccc(Nc2ccncc2)cc1)c1ccc(N2C(=O)c3ccccc3C2=O)cc1[N+](=O)[O-]`, the T/C (dose: 50.0 mg/kg/injection, schedule: Q01DX009 (ip), vehicle: saline with Tween-80) is 98 % of control; the T/C (dose: 100.0 mg/kg/injection, schedule: Q01DX009 (ip), vehicle: saline with Tween-80) is 95 % of control; the T/C under setting [10] is 95 % of control.

Turning to `CCN(CC)CCCC(C)NC(=O)Nc1cc(OC)cc2cccnc12` (stereo not drawn), the T/C by setting is: (dose: 12.5 mg/kg/injection, schedule: Q01DX005 (ip), vehicle: saline) 107 % of control; (dose: 25.0 mg/kg/injection, schedule: Q01DX005 (ip), vehicle: saline) 108 % of control; (dose: 50.0 mg/kg/injection, schedule: Q01DX005 (ip), vehicle: saline) 104 % of control and 106 % of control.

With `N#CC1C(=O)NC(=O)C(C#N)C1c1ccncc1` (stereo not drawn), the T/C by setting is: under setting [4], 103 % of control; under setting [5], 104 % of control; under setting [6], 103 % of control.

On to `CC(C)c1ccc(OC(=N)c2ccccc2)cc1`, for which the T/C was 98 % of control (dose: 100.0 mg/kg/injection, schedule: Q04DX003 (ip), vehicle: saline with Tween-80); 100 % of control under setting [11]; 89 % of control under setting [7].

In the case of `COc1cc2c(cc1C(C)(C)c1ccccc1)OCO2`, the T/C reads like this: under setting [18], 99 % of control; (dose: 100.0 mg/kg/injection, schedule: Q01DX005 (ip), vehicle: saline with Tween-80) 100 % of control; (dose: 200.0 mg/kg/injection, schedule: Q01DX005 (ip), vehicle: saline with Tween-80) 101 % of control.
